# Test results taken from publication PMC10385824, “Antiproliferative and Tubulin-Destabilising Effects of 3-(Prop-1-en-2-yl)azetidin-2-Ones and Related Compounds in MCF-7 and MDA-MB-231 Breast Cancer Cells” (Pharmaceuticals, 2023).
# Where two headings read alike, the source gives them in different places.
# How the values were obtained:
# [1] = tested on: SN12C; assay: NCI-60 SRB screen, renal cancer; format: cell-based, human; conditions: 48 h; for GI50: Homo sapiens, five dose 0.01–100 µM, read-out: GI50
# [2] = tested on: HT29; assay: NCI-60 SRB screen, colon cancer; format: cell-based, human; conditions: HT29, 48 h; for GI50: Homo sapiens, HT-29, five dose 0.01–100 µM, read-out: GI50
# [3] = tested on: HCT-116; assay: NCI-60 SRB screen, colon cancer; format: cell-based, human; conditions: HCT-116, 48 h; for GI50: Homo sapiens, five dose 0.01–100 µM, read-out: GI50
# [4] = tested on: purified bovine brain tubulin; assay: Tubulin polymerization assay (light scattering, BK006 kit); format: biochemical; conditions: compound at 10 μM; relative to vehicle
# How it was run: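 Compounds tested at 10 µM against vehicle (1% DMSO or EtOH) with bovine brain tubulin, 3 mg/mL, in pH 6.9 PIPES buffer containing 1 mM GTP and 10% glycerol, 37 °C. Light scattering at 340 nm tracked microtubule formation; average of two independent runs reported.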
# [5] = tested on: 786-0; assay: NCI-60 SRB screen, renal cancer; format: cell-based, human; conditions: 786-0, 48 h; for GI50: Homo sapiens, five dose 0.01–100 µM, read-out: GI50
# [6] = tested on: BT-549; assay: NCI-60 SRB screen, breast cancer; format: cell-based, human; conditions: BT-549, 48 h; for GI50: Homo sapiens, five dose 0.01–100 µM, read-out: GI50
# [7] = tested on: OVCAR-5; assay: NCI-60 SRB screen, ovarian cancer; format: cell-based, human; conditions: OVCAR-5, 48 h; for GI50: Homo sapiens, five dose 0.01–100 µM, read-out: GI50
# [8] = tested on: IGROV1; assay: NCI-60 SRB screen, ovarian cancer; format: cell-based, human; conditions: IGROV1, 48 h; for GI50: Homo sapiens, IGROV-1, five dose 0.01–100 µM, read-out: GI50
# [9] = tested on: UACC-62; assay: NCI-60 SRB screen, melanoma; format: cell-based, human; conditions: UACC-62, 48 h; for GI50: Homo sapiens, five dose 0.01–100 µM, read-out: GI50
# [10] = tested on: SNB-19; assay: NCI-60 SRB screen, CNS cancer; format: cell-based, human; conditions: SNB-19, 48 h; for GI50: Homo sapiens, five dose 0.01–100 µM, read-out: GI50
# [11] = tested on: KM12; assay: NCI-60 SRB screen, colon cancer; format: cell-based, human; conditions: KM12, 48 h; for GI50: Homo sapiens, five dose 0.01–100 µM, read-out: GI50
# [12] = tested on: SW-620; assay: NCI-60 SRB screen, colon cancer; format: cell-based, human; conditions: SW-620, 48 h; for GI50: Homo sapiens, five dose 0.01–100 µM, read-out: GI50
# [13] = tested on: COLO 205; assay: NCI-60 SRB screen, colon cancer; format: cell-based, human; conditions: COLO 205, 48 h; for GI50: Homo sapiens, five dose 0.01–100 µM, read-out: GI50
# [14] = tested on: HOP-92; assay: NCI-60 SRB screen, non-small cell lung cancer; format: cell-based, human; conditions: HOP-92, 48 h; for GI50: Homo sapiens, five dose 0.01–100 µM, read-out: GI50
# [15] = tested on: EKVX; assay: NCI-60 SRB screen, non-small cell lung cancer; format: cell-based, human; conditions: 48 h
# [16] = tested on: HL-60(TB); assay: NCI-60 SRB screen, leukemia; format: cell-based, human; conditions: for GI50: Homo sapiens
# [17] = tested on: SR; assay: NCI-60 SRB screen, leukemia; format: cell-based, human; conditions: 48 h; for GI50: Homo sapiens, five dose 0.01–100 µM, read-out: GI50
# [18] = tested on: HCT-2998; assay: NCI-60 SRB screen, colon cancer; format: cell-based, human; conditions: 48 h; for GI50: Homo sapiens, HCT-2998, five dose 0.01–100 µM, read-out: GI50
# [19] = tested on: CAKI-1; assay: NCI-60 SRB screen, renal cancer; format: cell-based, human; conditions: CAKI-1, 48 h; for GI50: Homo sapiens, five dose 0.01–100 µM, read-out: GI50
# [20] = tested on: HCT-15; assay: NCI-60 SRB screen, colon cancer; format: cell-based, human; conditions: HCT-15, 48 h; for GI50: Homo sapiens, five dose 0.01–100 µM, read-out: GI50
# [21] = tested on: A549/ATCC; assay: NCI-60 SRB screen, non-small cell lung cancer; format: cell-based, human; conditions: 48 h; for GI50: Homo sapiens, A549/ATCC, five dose 0.01–100 µM, read-out: GI50
# [22] = tested on: ACHN; assay: NCI-60 SRB screen, renal cancer; format: cell-based, human; conditions: 48 h; for GI50: Homo sapiens, five dose 0.01–100 µM, read-out: GI50
# [23] = tested on: U251; assay: NCI-60 SRB screen, CNS cancer; format: cell-based, human; conditions: U251, 48 h; for GI50: Homo sapiens, U-251, five dose 0.01–100 µM, read-out: GI50
# [24] = tested on: MDA-MB-435; assay: NCI-60 SRB screen, melanoma; format: cell-based, human; conditions: MDA-MB-435, 48 h; for GI50: Homo sapiens, five dose 0.01–100 µM, read-out: GI50
# [25] = tested on: NCI 60 human cancer cell line panel; assay: NCI 60 cell line screen (SRB), panel values; conditions: for IC (TGI (total growth inhibition)): read-out: Mean TGI
# [26] = tested on: CCRF-CEM; assay: NCI-60 SRB screen, leukemia; format: cell-based; conditions: Homo sapiens, five dose 0.01–100 µM, 48 h, read-out: GI50
# [27] = tested on: A498; assay: NCI-60 SRB screen, renal cancer; format: cell-based, human; conditions: A498, 48 h; for GI50: Homo sapiens, five dose 0.01–100 µM, read-out: GI50
# [28] = tested on: LOX IMVI; assay: NCI-60 SRB screen, melanoma; format: cell-based, human; conditions: 48 h; for GI50: Homo sapiens, five dose 0.01–100 µM, read-out: GI50
# [29] = tested on: NCI-H226; assay: NCI-60 SRB screen, non-small cell lung cancer; format: cell-based; conditions: Homo sapiens; NCI-H226; five dose 0.01–100 µM, 48 h; read-out: GI50
# [30] = HL-60(TB), five dose 0.01–100 µM, 48 h
# [31] = Homo sapiens, 60 cell, 9 h, read-out: LC50
# [32] = Homo sapiens, 60 cell, read-out: Mean GI50, mean over all NCI 60 cell lines
# [33] = Homo sapiens, 60 cell, read-out: Mean LC50
smiles,measurement,setting,value
"C=C(C)C1C(=O)N(c2cc(OC)c(OC)c(OC)c2)C1c1ccc(OC)cc1 (centres unmarked) [9h, 4-(4-Methoxyphenyl)-1-(3,4,5-trimethoxyphenyl)-3-(prop-1-en-2-yl)azetidin-2-one]",GI50,[1],50.3 nM
same,GI50,[2],35.4 nM
same,GI50,[3],31.7 nM
same,Fold Reduction in Vmax,[4],1.81
same,GI50,[5],44.2 nM
same,GI50,[6],32.9 nM
same,GI50,[7],98.3 nM
same,GI50,[8],49.9 nM
same,GI50,[9],39.2 nM
same,GI50,[10],67.5 nM
same,GI50,[11],34 nM
same,GI50,[12],42.4 nM
same,GI50,[13],27.1 nM
same,GI50,[14],71.9 nM
same,GI50,"[15]; Homo sapiens, five dose 0.01–100 µM, read-out: GI50",81.3 nM
same,GI50,[16]; [30],33.1 nM
same,GI50,"[16]; HL-60, NCI screen",< 34 nM
same,GI50,[17],38.5 nM
same,GI50,[18],30.7 nM
same,GI50,[19],83.1 nM
same,GI50,[20],40.6 nM
same,GI50,[21],40.8 nM
same,GI50,[22],64.3 nM
same,GI50,[23],36 nM
same,GI50,[24],294 nM
same,CC50,[25]; [31],> 100000 nM
same,GI50,[25]; [32],< 91.2 nM
same,CC50,[25]; [33],87100 nM
same,IC (TGI (total growth inhibition)),"[25]; Homo sapiens, 60 cell",15500 nM
same,GI50,"[25]; read-out: Mean GI50, mean over all NCI 60 cell lines",58.9 nM
same,GI50,[26],37.5 nM
same,GI50,[27],24.3 nM
same,GI50,[28],38.8 nM
"C=C(C)C1C(=O)N(c2cc(OC)c(OC)c(OC)c2)C1c1ccc(OC)c(O)c1 (centres unmarked) [9q, 4-(3-Hydroxy-4-methoxyphenyl)-1-(3,4,5-trimethoxyphenyl)-3-(prop-1-en-2-yl)azetidin-2-one]",GI50,[1],37 nM
same,% Growth,[1]; one dose 10 µM,31.39%
same,% Growth,[2]; one dose 10 µM,2.66%
same,GI50,[2],187 nM
same,% Growth,[3]; one dose 10 µM,-10.74%
same,GI50,[3],14.9 nM
same,Fold Reduction in Vmax,[4],4.27
same,% Growth,[5]; one dose 10 µM,4.28%
same,GI50,[5],26.8 nM
same,% Growth,[6]; one dose 10 µM,-9.94%
same,GI50,[6],11 nM
same,GI50,[7],49.4 nM
same,% Growth,[7]; one dose 10 µM,44.67%
same,GI50,[8],32.2 nM
same,% Growth,[8]; one dose 10 µM,29.32%
same,GI50,[9],< 10 nM
same,% Growth,[9]; one dose 10 µM,38.81%
same,GI50,[10],58.8 nM
same,% Growth,[10]; one dose 10 µM,37.93%
same,GI50,[11],< 10 nM
same,% Growth,[11]; one dose 10 µM,-24.63%
same,GI50,[12],33.4 nM
same,% Growth,[12]; one dose 10 µM,17.89%
same,% Growth,[13]; one dose 10 µM,-27.00%
same,GI50,[13],284 nM
same,% Growth,[14]; one dose 10 µM,16.15%
same,GI50,[14],15.4 nM
same,% Growth,[15]; one dose 10 µM,68.88%
same,% Growth,"[16]; HL-60(TB), one dose 10 µM, 48 h",-51.24%
same,GI50,[16]; [30],21.1 nM
same,GI50,"[16]; HL-60, NCI screen",< 34 nM
same,GI50,[17],< 10 nM
same,% Growth,[17]; one dose 10 µM,-2.84%
same,% Growth,"[18]; HCC-2998, one dose 10 µM",-6.59%
same,GI50,[18],30.1 nM
same,% Growth,[19]; one dose 10 µM,44.03%
same,GI50,[19],30.8 nM
same,% Growth,[20]; one dose 10 µM,15.23%
same,GI50,[20],29.9 nM
same,% Growth,"[21]; A549/A TCC, one dose 10 µM",14.76%
same,GI50,[21],27.8 nM
same,GI50,[22],21.3 nM
same,% Growth,[22]; one dose 10 µM,34.94%
same,GI50,[23],30.5 nM
same,% Growth,[23]; one dose 10 µM,9.06%
same,GI50,[24],< 10 nM
same,% Growth,[24]; one dose 10 µM,-13.45%
same,CC50,[25]; [31],> 100000 nM
same,GI50,"[25]; Homo sapiens, 60 cell, breast cancer cell lines MCF-7, MDA-MB-231, HS 578T, BT-549, MDA-MB-468",10 to 16 nM
same,GI50,"[25]; Homo sapiens, 60 cell, in 48 of the panel cell lines tested",< 50 nM
same,CC50,[25]; [33],81300 nM
same,IC (TGI (total growth inhibition)),"[25]; Homo sapiens, 60 cell",32400 nM
same,GI50 in words,[25]; all cell lines investigated except T-47D,sub-micromolar
same,TGI,[25]; for 34 of the cell lines tested,> 100000 nM
same,"% Growth, Delta","[25]; one dose 10 µM, 48 h",65.02%
same,"% Growth, Range","[25]; one dose 10 µM, 48 h",126.47%
same,"% Growth, Mean","[25]; one dose 10 µM, 48 h, all cell lines",13.02%
same,GI50,[26],19.2 nM
same,% Growth,[27]; one dose 10 µM,-13.19%
same,GI50,[27],< 10 nM
same,GI50,[28],< 10 nM
same,% Growth,[28]; one dose 10 µM,30.61%
"C=C(C)C1C(=O)N(c2cc(OC)c(OC)c(OC)c2)C1c1ccc(OC)c(OP(=O)(O)O)c1 (centres unmarked) [15a, 2-Methoxy-5-(4-oxo-3-(prop-1-en-2-yl)-1-(3,4,5-trimethoxyphenyl)azetidin-2-yl)-phenyl dihydrogen phosphate]",GI50,[1],192 nM
same,GI50,[2],577 nM
same,GI50,[3],50.6 nM
same,GI50,[5],390 nM
same,GI50,[6],59.6 nM
same,GI50,[7],535 nM
same,GI50,[29],> 100000 nM
same,GI50,[8],62.8 nM
same,GI50,[9],55.5 nM
same,GI50,[10],429 nM
same,GI50,[11],38.1 nM
same,GI50,[12],80.7 nM
same,GI50,[13],312 nM
same,GI50,[14],315 nM
same,GI50,[16]; [30],27.9 nM
same,GI50,"[16]; HL-60, NCI screen",< 34 nM
same,GI50,[17],53.1 nM
same,GI50,[18],238 nM
same,GI50,[19],80.5 nM
same,GI50,[20],70.7 nM
same,GI50,[21],59.6 nM
same,GI50,[22],77.1 nM
same,GI50,[23],39.5 nM
same,GI50,[24],25.9 nM
same,GI50,[25]; [32],138 nM
same,CC50,[25]; [33],85100 nM
same,IC (TGI (total growth inhibition)),"[25]; Homo sapiens, 60 cell",43600 nM
same,GI50,[26],55.7 nM
same,GI50,[27],32.4 nM
same,GI50,[28],42.6 nM
